How the values were obtained:
[1] = system: nerve growth factor production by L-M cells; assay: Enhancement of nerve growth factor production in L-M cells (enzyme immunoassay); type: cell-based, Rat; conditions: for Nerve growth factor concentration: 24 hours, 0 µM control 0.132
Procedure: Rat fibroblast L-M cells (ATCC CCL-1.2) were suspended in a M199 medium (Gibco) containing 0.5% Bacto Peptone (Gibco) at a concentration of 1.0 x 10^5 cells/ml. 1 ml of the suspension was inoculated into each well of a 24-well plate. The cells were cultured aseptically. After culturing for 2 days, the medium was removed and substituted with a M199 medium containing 0.5% bovine serum albumin (Sigma). Then, cyclopentenone (final concentration of 1 to 25 µM), 4HCP (Aldrich) (final concentration of 12.5µM) or dipropionylcyclopentenone (final concentration of 3.1 to 9.4 µM) was added thereto. […]
After completion of the incubation, the concentration of nerve growth factor in the culture was measured by enzyme immunoassay (NGF Emax Immuno Assay System: Promega). […]

[2] = system: HGF production, MRC-5 cells; assay: Enhancement of HGF production in MRC-5 cells (ELISA); type: cell-based, Human; conditions: 24 hours, negative control defined as 100% (7.2 ng/ml)
Procedure: MRC-5 cells (CCL171, Dainippon Pharmaceutical) were suspended in a DME medium (Bio Whittaker) containing 10% fetal calf serum at a concentration of 1 x 10^5 cells/ml. 500 µl of the suspension was placed into a 48-well cell culture plate. After culturing at 37°C in the presence of 5% CO2 for 24 hours, the medium was exchanged for a DME medium containing 1% fetal calf serum. Then, one of samples was added thereto. The plate was incubated for additional 24 hours. The medium was then recovered, and the amount of HGF in the culture medium was measured using Quantikine Human Hepatocyte Growth Factor (HGF) ELISA Kit (Funakoshi). The amount of HGF produced was expressed defining a negative control as 100%. In this case, the amount of HGF produced for the negative control was 7.2 ng/ml. Cyclopentenone (at a final concentration of 20, 40 or 160 µM), GM (at a final concentration of 20, 40, 80 or 160 µM), or dipropionylcyclopentenone (at a final concentration of 32 or 64 µM) was added as a sample. As a negative control, distilled water was added in the same volume as the sample. As a positive control, prostaglandin E1 was added at a final concentration of 0.01, 0.1, 1 or 10 µM.

mouse = assay: Single oral dose toxicity in mouse; type: in vivo; conditions: single dose orally administered to a mouse at 100 mg/kg

dipropionylcyclopentenone
Nerve growth factor concentration ([1]; 3.1 µM): 0.164 ng/mL
Nerve growth factor concentration ([1]; 6.3 µM): 0.259 ng/mL
Nerve growth factor concentration ([1]; 9.4 µM): 0.257 ng/mL
production of nerve growth factor by L-M cells (result in words) ([1]; 24 hours incubation): enhanced the production of nerve growth factor by L-M cells in a concentration-dependent manner
Increase in HGF production ([2]; 32 µM): 120%
Increase in HGF production ([2]; 64 µM): 144%
death after single oral dose (mouse): no example of death was observed
